How the values were obtained:
Type in all cases: cell-based, human
MDA-MB-231 cells [1] = assay: Cell numbers, chemotherapy ±MitoQ, crystal violet; details: increasing doses of chemotherapy ±100 nM MitoQ; 24-72 h
Description: (§1) To test the effects of combination treatments on cell numbers, MDA-MB-231 or SkBr3 cancer cells were plated in 96-well plates and treated with increasing concentrations of chemotherapeutic drug ±MitoQ for 24 h (epirubicin), 48 h (doxorubicin, 5-FU, cisplatin, paclitaxel) or 72 h (gemcitabine). Cells were then fixed in 11% glutaraldehyde and stained with crystal violet. The dye retained by the cells was solubilized in 10% acetic acid, and the optical density (570 nm) was measured using a SpectraMax i3 spectrophotometer equipped with a MiniMax™ imaging cytometer.

SkBr3 cells [2] = assay: Cell numbers, chemotherapy ±MitoQ, crystal violet; details: increasing doses of chemotherapy ±100 nM MitoQ; 24-72 h
Description: as §1

MDA-MB-231 cells [3] = assay: RT-qPCR of EMT markers; details: MitoQ 500 nM, 48 h
Description: (§2) Total mRNA from MDA-MB-231, SkBr3 and MDA-MB-436 cells treated ±MitoQ for 48 h was extracted using the NucleoSpin RNA Kit (Macherey-Nagel®). Total mRNA from primary tumors was extracted with Tri reagent (Molecular Research Center®, Cat #TR118). mRNAs were quantified by the Qubit BR dsRNA assay kit (Thermo Fisher Scientific®), and mRNA integrity was evaluated on an Agilent® 2100 Bioanalyzer with the RNA 6000 nano kit (Agilent®). It was reverse transcribed in complementary DNA using the High-Capacity cDNA Reverse Transcription Kit (Applied Biosystems®, cat #4368814) according to manufacturer's protocol. Complementary DNA (500 ng) was amplified by real time quantitative PCR (RT-qPCR) using the low ROX SYBR Master Mix dTTP Blue (Eurogentec®) and primers listed in Table 5 and Table 6 on a ViiA 7 Real-Time PCR System (Thermo Fisher Scientific®). Gene expression was normalized to β-actin gene expression.

SkBr3 cells [4] = assay: RT-qPCR of EMT markers; details: MitoQ 500 nM, 48 h
Description: as §2

MDA-MB-436 cells [5] = assay: RT-qPCR of EMT markers; details: MitoQ 100 nM, 48 h
Description: as §2

MDA-MB-231 cells [6] = assay: Intracellular ATP, CellTiter-Glo; details: MitoQ 100 nM, 48 h
Description: Intracellular ATP levels were measured after 48 h of treatment ±MitoQ, using the CellTiter-Glo Luminescent Viability Assay (Promega®) on a Glomax 96 microplate luminometer (Promega®) following manufacturer's instructions. Results were normalized to cell number.

SkBr3 spheroids = assay: Spheres / stem-like spheroids
Description: as §2
(§3) 3D models were used to obtain an enriched population in stem cells. For that, 10^4 MDA-MB-231, SkBr3 or MDA-MB-436 cancer cells were grown in suspension using 10 cm dishes coated with Polyhema in stem-cell medium: DMEM/F-12 (Gibco®, cat #11320033) supplemented with 100 units/mL penicillin, 100 μg/mL streptomycin, 20 μL/mL B27 (Gibco®, cat #17504044), 20 ng/mL human recombinant epithelial growth factor (EGF) (Peprotech®, cat #AF-100-15), 10 ng/mL basic fibroblast growth factor (bFGF; Peprotech®, cat #100-18B) and 2.5 mg/mL insulin. When spheres reached around 100 μm in diameter, they were washed with PBS and dissociated with accutase (Stem Cell Technology®, cat #07920) in order to have single cells again. At the third passage, dissociated spheres were treated ±MitoQ for 96 h. Images were captured on Axiovert™ 40 CFL microscope equipped with a MRC camera. At the end of the treatment, living cells were collected for RNA extraction.
(§4) Stem like-spheroids were prepared by seeding 5,000 MDA-MB-231, SkBr3 or MDA-MB-436 dissociated spheres/well in ultra-Low attachment 96-well plates (Corning®, cat #7007) in stem cell medium supplemented as described above. After overnight formation, spheroids were treated ±MitoQ for 96 h. Spheroid growth was monitored using an Axio Observer live-cell phase contrast microscope (Zeiss®).

MDA-MB-231 spheroids = assay: Spheres / stem-like spheroids
Description: as §2, §3, §4

MDA-MB-231 cells [7] = assay: Cell migration, scratch test; details: MitoQ 100 nM, 48 h
Description: (§5) A scratch test was performed on cells treated ±MitoQ for 48 h (Tamura et al.; Science, 1998; 280, 1614-1617). For each condition and each time point, pictures were taken in the same field, and the distance between the wound edges was analyzed using the Image J software (Java®). The percentage of scratch closure was calculated in respect to wounded area at 0 h.

SkBr3 cells [8] = assay: Cell migration, scratch test; details: MitoQ 100 nM, 48 h
Description: as §5

MDA-MB-436 cells [9] = assay: Cell migration, scratch test; details: MitoQ 100 nM, 48 h
Description: as §5

MDA-MB-231 cells [10] = assay: Migration towards 0.5% serum, chemotaxis chamber; details: indicated doses of cisplatin + 100 nM MitoQ
Description: (§6) Previous to migration and invasion assays, cells were pretreated with the indicated amounts of drugs for 16 h, and left to recover for 6 h in full culture medium. Migration assays were performed in a NeuroProbe® standard 48-well chemotaxis chamber according to manufacturer's instructions. Briefly, the bottom chamber was filled with DMEM containing 0.5% serum as a chemo-attractant. Fifty thousand cells were seeded in the upper chamber in the same medium but without serum ±MitoQ where indicated, and allowed to migrate overnight through an 8-μm pore-size polycarbonate membrane. A similar stimulation protocol was used for invasion assays, with the difference of using Matrigel-coated transwells (Corning®). With MCF7 cells, membranes were previously incubated for 30 min with a solution of Vitronectin 10 μg/ml (Sigma-Aldrich®, #SRP3186). Migrated/invaded cells were fixed and stained with 100 μl of a 0.23% crystal violet solution (Sigma-Aldrich®, #C0775) for 10 min before counting on a SpectraMax™ i3 spectrophotometer equipped with a MiniMax imaging cytometer, using the SoftMax Pro software. Data were normalized to vehicle-treated cells (control).

MCF7 cells = assay: Migration towards 0.5% serum, chemotaxis chamber; details: 0.1 μg/mL DXR + 100 nM MitoQ
Description: as §6

## COC1=C(OC)C(=O)C(CCCCCCCCCC[P+](c2ccccc2)(c2ccccc2)c2ccccc2)=C(C)C1=O [MitoQ]
MDA-MB-231 cells [1]
  cytostatic/cytotoxic effects of doxorubicin, epirubicin, 5-fluorouracil (5-FU), cisplatin, paclitaxel and gemcitabine: did not alter
SkBr3 cells [2]
  cytostatic/cytotoxic effects of doxorubicin, epirubicin, 5-fluorouracil (5-FU), cisplatin, paclitaxel and gemcitabine: did not alter
MDA-MB-231 cells [3]
  SLUG/SNAI2 transcription: not significantly altered
  mRNA expression of EMT markers vimentin (VIM), SNAIL (SNAI1), ZEB1 and TWIST1: decreased
SkBr3 cells [4]
  mRNA expression of all analyzed EMT inducers: repressed
MDA-MB-436 cells [5]
  mRNA expression of EMT markers VIM (vimentin), SNAI1, SNAI2 and TWIST1: downregulated
MDA-MB-231 cells [6]
  ATP production: overall decrease
SkBr3 spheroids
  NANOG and SOX2 mRNA expression: decreased
  spheroid formation and spheroid destabilization: Neither inhibition of spheroid formation not spheroid destabilization was seen
MDA-MB-231 spheroids
  dose sufficient to destabilize already formed spheroids: 100 nM
MDA-MB-231 spheroids; MitoQ 250 nM
  mRNA expression of stem cells markers POU5F1/(Oct4), NANOG and SOX2: significant decrease
  spheroid formation: inhibited
MDA-MB-231 cells [7]
  migratory capability: highly significantly reduced
SkBr3 cells [8]
  migratory capability: highly significantly reduced
MDA-MB-436 cells [9]
  cell migration: inhibited
MDA-MB-231 cells [10]
  breast cancer cell migration in the presence of cisplatin: repressed
MCF7 cells
  DXR-stimulated cell migration: inhibited
